≈ marks a conversion by molar mass, not a printed value.
Legend:
Bacillus spizizenii = assay: Antibacterial activity against Bacillus subtilis ATCC 6633 after 24 hrs by microbroth dilution method; format: functional; conditions: ATCC 6633, 24 h
Bacillus = assay: Antibacterial activity against Bacillus proteus ATCC 13315 after 24 hrs by microbroth dilution method; format: functional; conditions: ATCC 13315, 24 h
Escherichia coli = assay: Antibacterial activity against Escherichia coli JM109 after 24 hrs by microbroth dilution method; format: functional; conditions: JM109, 24 h
[1] = Ionization constant, pKa of the compound by UV spectroscopic analysis; format: physicochemical
Pseudomonas aeruginosa = assay: Antibacterial activity against Pseudomonas aeruginosa ATCC 27853 after 24 hrs by microbroth dilution method; format: functional; conditions: ATCC 27853, 24 h
Staphylococcus aureus [2] = assay: Antibacterial activity against Staphylococcus aureus ATCC 25923 after 24 hrs by microbroth dilution method; format: functional; conditions: ATCC 25923, 24 h
Salmonella enterica = assay: Antibacterial activity against Salmonella enterica ATCC 14028 after 24 hrs by microbroth dilution method; format: functional; conditions: ATCC 14028, 24 h
Candida albicans = assay: Antifungal activity against Candida albicans ATCC 10231 after 24 hrs by microbroth dilution method; format: functional; conditions: ATCC 10231, 24 h
Staphylococcus aureus [3] = assay: Antibacterial activity against methicillin-resistant Staphylococcus aureus N315 after 24 hrs by microbroth dilution method; format: functional; conditions: N315, 24 h
Saccharomyces cerevisiae = assay: Antifungal activity against Saccharomyces cerevisiae ATCC 9763 after 24 hrs by microbroth dilution method; format: functional; conditions: ATCC 9763, 24 h
Pichia norvegensis = assay: Antifungal activity against Candida mycoderma ATCC 9888 after 24 hrs by microbroth dilution method; format: functional; conditions: ATCC 9888, 24 h
Micrococcus luteus = assay: Antibacterial activity against Micrococcus luteus ATCC 4698 after 24 hrs by microbroth dilution method; format: functional; conditions: NCTC 2665, 24 h
Cyberlindnera jadinii = assay: Antifungal activity against Candida utilis ATCC 9950 after 24 hrs by microbroth dilution method; format: functional; conditions: Williopsis jadinii, ATCC 9950, 24 h
Aspergillus flavus = assay: Antifungal activity against Aspergillus flavus ATCC 204304 after 24 hrs by microbroth dilution method; format: functional; conditions: ATCC 204304, 24 h

Compound	MIC (Bacillus spizizenii)	MIC (Bacillus)	MIC (Escherichia coli)	pKa [1]	MIC (Pseudomonas aeruginosa)	MIC (Staphylococcus aureus [2])	MIC (Salmonella enterica)	MIC (Candida albicans)	MIC (Staphylococcus aureus [3])	MIC (Saccharomyces cerevisiae)	MIC (Pichia norvegensis)	MIC (Micrococcus luteus)	MIC (Cyberlindnera jadinii)	MIC (Aspergillus flavus)
Cc1nc(N2CCOCC2)c([N+](=O)[O-])n1CC(O)CN1CCN(c2cc3c(cc2F)c(=O)c(C(=O)O)cn3C2CC2)CC1 (stereo not given)	8 µg/mL (≈ 13.3 µM)	4 µg/mL (≈ 6.67 µM)	16 µg/mL (≈ 26.7 µM)	6.77	0.5 µg/mL (≈ 0.834 µM)	16 µg/mL (≈ 26.7 µM)	8 µg/mL (≈ 13.3 µM)	32 µg/mL (≈ 53.4 µM)	4 µg/mL (≈ 6.67 µM)	16 µg/mL (≈ 26.7 µM)	128 µg/mL (≈ 213 µM)	16 µg/mL (≈ 26.7 µM)	4 µg/mL (≈ 6.67 µM)	8 µg/mL (≈ 13.3 µM)
OC(Cn1cncn1)(Cn1cncn1)c1ccc(F)cc1F [FLUCONAZOLE]	–	–	–	–	–	–	–	1 µg/mL (≈ 3.27 µM)	–	16 µg/mL (≈ 52.2 µM)	4 µg/mL (≈ 13.1 µM)	–	8 µg/mL (≈ 26.1 µM)	256 µg/mL (≈ 836 µM)
NC1CCN(c2c(F)cc3c(=O)c(C(=O)O)cn(C4CC4)c3c2Cl)C1 (stereo not given) [CLINAFLOXACIN]	0.5 µg/mL (≈ 1.37 µM)	0.5 µg/mL (≈ 1.37 µM)	1 µg/mL (≈ 2.73 µM)	–	1 µg/mL (≈ 2.73 µM)	0.5 µg/mL (≈ 1.37 µM)	1 µg/mL (≈ 2.73 µM)	–	1 µg/mL (≈ 2.73 µM)	–	–	0.5 µg/mL (≈ 1.37 µM)	–	–
CCn1cc(C(=O)O)c(=O)c2cc(F)c(N3CCN(CC(O)Cn4c(C)nc(N5CCOCC5)c4[N+](=O)[O-])CC3)cc21 (stereo not given)	16 µg/mL (≈ 27.2 µM)	32 µg/mL (≈ 54.5 µM)	64 µg/mL (≈ 109 µM)	6.64	2 µg/mL (≈ 3.4 µM)	32 µg/mL (≈ 54.5 µM)	32 µg/mL (≈ 54.5 µM)	16 µg/mL (≈ 27.2 µM)	4 µg/mL (≈ 6.81 µM)	16 µg/mL (≈ 27.2 µM)	64 µg/mL (≈ 109 µM)	8 µg/mL (≈ 13.6 µM)	16 µg/mL (≈ 27.2 µM)	16 µg/mL (≈ 27.2 µM)
CCn1cc(C(=O)O)c(=O)c2cc(F)c(N3CCNCC3)cc21 [NORFLOXACIN]	1 µg/mL (≈ 3.13 µM)	8 µg/mL (≈ 25.1 µM)	2 µg/mL (≈ 6.26 µM)	–	4 µg/mL (≈ 12.5 µM)	2 µg/mL (≈ 6.26 µM)	1 µg/mL (≈ 3.13 µM)	–	2 µg/mL (≈ 6.26 µM)	–	–	2 µg/mL (≈ 6.26 µM)	–	–
Cc1nc(N2CCCC2)c([N+](=O)[O-])n1CC(O)CNC1CCN(c2c(F)cc3c(=O)c(C(=O)O)cn(C4CC4)c3c2Cl)C1 (stereo not given)	1 µg/mL (≈ 1.62 µM)	0.5 µg/mL (≈ 0.809 µM)	8 µg/mL (≈ 12.9 µM)	6.54	0.5 µg/mL (≈ 0.809 µM)	1 µg/mL (≈ 1.62 µM)	8 µg/mL (≈ 12.9 µM)	2 µg/mL (≈ 3.24 µM)	1 µg/mL (≈ 1.62 µM)	4 µg/mL (≈ 6.47 µM)	4 µg/mL (≈ 6.47 µM)	4 µg/mL (≈ 6.47 µM)	1 µg/mL (≈ 1.62 µM)	2 µg/mL (≈ 3.24 µM)
CCn1cc(C(=O)O)c(=O)c2cc(F)c(N3CCN(CC(O)Cn4c(C)nc(N5CCCCC5)c4[N+](=O)[O-])CC3)cc21 (stereo not given)	128 µg/mL (≈ 219 µM)	128 µg/mL (≈ 219 µM)	256 µg/mL (≈ 437 µM)	6.75	4 µg/mL (≈ 6.83 µM)	64 µg/mL (≈ 109 µM)	128 µg/mL (≈ 219 µM)	32 µg/mL (≈ 54.6 µM)	64 µg/mL (≈ 109 µM)	32 µg/mL (≈ 54.6 µM)	128 µg/mL (≈ 219 µM)	128 µg/mL (≈ 219 µM)	32 µg/mL (≈ 54.6 µM)	32 µg/mL (≈ 54.6 µM)
Cc1nc(N2CCOCC2)c([N+](=O)[O-])n1CC(O)CNC1CCN(c2c(F)cc3c(=O)c(C(=O)O)cn(C4CC4)c3c2Cl)C1 (stereo not given)	4 µg/mL (≈ 6.31 µM)	0.25 µg/mL (≈ 0.394 µM)	0.5 µg/mL (≈ 0.789 µM)	6.57	0.25 µg/mL (≈ 0.394 µM)	0.5 µg/mL (≈ 0.789 µM)	2 µg/mL (≈ 3.15 µM)	2 µg/mL (≈ 3.15 µM)	0.25 µg/mL (≈ 0.394 µM)	1 µg/mL (≈ 1.58 µM)	16 µg/mL (≈ 25.2 µM)	2 µg/mL (≈ 3.15 µM)	0.5 µg/mL (≈ 0.789 µM)	1 µg/mL (≈ 1.58 µM)
CCn1cc(C(=O)O)c(=O)c2cc(F)c(N3CCN(CC(O)Cn4c(C)nc(N5CCCC5)c4[N+](=O)[O-])CC3)cc21 (stereo not given)	64 µg/mL (≈ 112 µM)	64 µg/mL (≈ 112 µM)	128 µg/mL (≈ 224 µM)	6.68	4 µg/mL (≈ 7 µM)	64 µg/mL (≈ 112 µM)	64 µg/mL (≈ 112 µM)	32 µg/mL (≈ 56 µM)	32 µg/mL (≈ 56 µM)	8 µg/mL (≈ 14 µM)	16 µg/mL (≈ 28 µM)	64 µg/mL (≈ 112 µM)	32 µg/mL (≈ 56 µM)	16 µg/mL (≈ 28 µM)
CCn1cc(C(=O)O)c(=O)c2cc(F)c(N3CCN(CC(O)Cn4c([N+](=O)[O-])cnc4C)CC3)cc21 (stereo not given)	16 µg/mL (≈ 31.8 µM)	16 µg/mL (≈ 31.8 µM)	32 µg/mL (≈ 63.7 µM)	6.57	2 µg/mL (≈ 3.98 µM)	16 µg/mL (≈ 31.8 µM)	16 µg/mL (≈ 31.8 µM)	128 µg/mL (≈ 255 µM)	4 µg/mL (≈ 7.96 µM)	32 µg/mL (≈ 63.7 µM)	64 µg/mL (≈ 127 µM)	16 µg/mL (≈ 31.8 µM)	64 µg/mL (≈ 127 µM)	32 µg/mL (≈ 63.7 µM)
O=C(O)c1cn(C2CC2)c2cc(N3CCNCC3)c(F)cc2c1=O [CIPROFLOXACIN]	1 µg/mL (≈ 3.02 µM)	1 µg/mL (≈ 3.02 µM)	–	–	1 µg/mL (≈ 3.02 µM)	–	1 µg/mL (≈ 3.02 µM)	–	–	–	–	–	–	–
Cc1nc(N2CCCCC2)c([N+](=O)[O-])n1CC(O)CN1CCN(c2cc3c(cc2F)c(=O)c(C(=O)O)cn3C2CC2)CC1 (stereo not given)	32 µg/mL (≈ 53.5 µM)	128 µg/mL (≈ 214 µM)	128 µg/mL (≈ 214 µM)	6.9	1 µg/mL (≈ 1.67 µM)	128 µg/mL (≈ 214 µM)	64 µg/mL (≈ 107 µM)	64 µg/mL (≈ 107 µM)	32 µg/mL (≈ 53.5 µM)	64 µg/mL (≈ 107 µM)	64 µg/mL (≈ 107 µM)	64 µg/mL (≈ 107 µM)	32 µg/mL (≈ 53.5 µM)	8 µg/mL (≈ 13.4 µM)
CCn1cc(C(=O)O)c(=O)c2cc(F)c(N3CCN(CC4CO4)CC3)cc21 (stereo not given)	64 µg/mL (≈ 170 µM)	4 µg/mL (≈ 10.7 µM)	2 µg/mL (≈ 5.33 µM)	–	16 µg/mL (≈ 42.6 µM)	8 µg/mL (≈ 21.3 µM)	16 µg/mL (≈ 42.6 µM)	4 µg/mL (≈ 10.7 µM)	2 µg/mL (≈ 5.33 µM)	1 µg/mL (≈ 2.66 µM)	1 µg/mL (≈ 2.66 µM)	8 µg/mL (≈ 21.3 µM)	8 µg/mL (≈ 21.3 µM)	1 µg/mL (≈ 2.66 µM)
Cc1nc(N2CCCCC2)c([N+](=O)[O-])n1CC(O)CNC1CCN(c2c(F)cc3c(=O)c(C(=O)O)cn(C4CC4)c3c2Cl)C1 (stereo not given)	8 µg/mL (≈ 12.7 µM)	1 µg/mL (≈ 1.58 µM)	32 µg/mL (≈ 50.6 µM)	6.69	1 µg/mL (≈ 1.58 µM)	8 µg/mL (≈ 12.7 µM)	16 µg/mL (≈ 25.3 µM)	4 µg/mL (≈ 6.33 µM)	2 µg/mL (≈ 3.16 µM)	8 µg/mL (≈ 12.7 µM)	8 µg/mL (≈ 12.7 µM)	16 µg/mL (≈ 25.3 µM)	2 µg/mL (≈ 3.16 µM)	4 µg/mL (≈ 6.33 µM)
O=C(O)c1cn(C2CC2)c2cc(N3CCN(CC4CO4)CC3)c(F)cc2c1=O (stereo not given)	8 µg/mL (≈ 20.6 µM)	4 µg/mL (≈ 10.3 µM)	1 µg/mL (≈ 2.58 µM)	–	2 µg/mL (≈ 5.16 µM)	4 µg/mL (≈ 10.3 µM)	2 µg/mL (≈ 5.16 µM)	2 µg/mL (≈ 5.16 µM)	1 µg/mL (≈ 2.58 µM)	1 µg/mL (≈ 2.58 µM)	1 µg/mL (≈ 2.58 µM)	2 µg/mL (≈ 5.16 µM)	2 µg/mL (≈ 5.16 µM)	1 µg/mL (≈ 2.58 µM)
O=C(O)c1cn(C2CC2)c2c(Cl)c(NC3CCN(CC4CO4)C3)c(F)cc2c1=O (stereo not given)	0.25 µg/mL (≈ 0.593 µM)	0.25 µg/mL (≈ 0.593 µM)	0.5 µg/mL (≈ 1.19 µM)	–	0.5 µg/mL (≈ 1.19 µM)	0.5 µg/mL (≈ 1.19 µM)	1 µg/mL (≈ 2.37 µM)	2 µg/mL (≈ 4.74 µM)	2 µg/mL (≈ 4.74 µM)	0.25 µg/mL (≈ 0.593 µM)	2 µg/mL (≈ 4.74 µM)	0.25 µg/mL (≈ 0.593 µM)	0.5 µg/mL (≈ 1.19 µM)	0.5 µg/mL (≈ 1.19 µM)

Source: ChEMBL document CHEMBL3603734, “Design and biological evaluation of novel quinolone-based metronidazole derivatives as potent Cu(2+) mediated DNA-targeting antibacterial agents” (Bioorg Med Chem Lett, 2015)
